Measurements: ChEMBL document CHEMBL3885881, “DrugMatrix”

Species on record: Rattus norvegicus
Assay: DrugMatrix - Regimen: Daily Repeat
Format: toxicity, organism-based, Sprague-Dawley
Set-up: regimen Daily Repeat, gender Male, age 6-8 weeks
Conditions: in vivo, po, route oral GAVAGE, vehicle 100 % WATER; for ERYTHROCYTE COUNT / HEMATOCRIT / HEMOGLOBIN / LEUKOCYTE COUNT / MEAN CORPUSCULAR HEMOGLOBIN / MEAN CORPUSCULAR HEMOGLOBIN CONCENTRATION / MEAN CORPUSCULAR VOLUME: tissue Blood; for ALANINE AMINOTRANSFERASE / ALBUMIN / ALKALINE PHOSPHATASE / ASPARTATE AMINOTRANSFERASE / BLOOD UREA NITROGEN / CARBON DIOXIDE / CHLORIDE / CHOLESTEROL / CREATINE PHOSPHOKINASE / CREATININE / GLUCOSE / LACTATE DEHYDROGENASE / LIPASE / PHOSPHORUS / POTASSIUM / SODIUM / TOTAL BILIRUBIN / TOTAL PROTEIN / URIC ACID: tissue Plasma
[1] = 0 mg/kg, 72 h, dose level Control, time 3 day
[2] = 0 mg/kg, 120 h, dose level Control, time 5 day
[3] = 70 mg/kg, 72 h, dose level Low, time 3 day
[4] = 70 mg/kg, 120 h, dose level Low, time 5 day

COc1cc2c(N3CCN(C(=O)Nc4ccc(OC(C)C)cc4)CC3)ncnc2cc1OCCCN1CCCCC1 [TANDUTINIB]
ERYTHROCYTE COUNT [1]: 6.09 x10E6/uL
HEMATOCRIT [1]: 42.62%
HEMOGLOBIN [1]: 13.07 G/DL
LEUKOCYTE COUNT [1]: 13.95 x10E3/uL
MEAN CORPUSCULAR HEMOGLOBIN [1]: 21.47 pg
MEAN CORPUSCULAR HEMOGLOBIN CONCENTRATION [1]: 30.62 G/DL
MEAN CORPUSCULAR VOLUME [1]: 70.05 fL
ALANINE AMINOTRANSFERASE [1]: 47.67 u/L
ALBUMIN [1]: 3.8 G/DL
ALKALINE PHOSPHATASE [1]: 369 u/L
ASPARTATE AMINOTRANSFERASE [1]: 86.17 u/L
BLOOD UREA NITROGEN [1]: 16.33 mg/dL
CARBON DIOXIDE [1]: 37.33 mmol/L
CHLORIDE [1]: 104.83 MEQ/L
CHOLESTEROL [1]: 79.83 mg/dL
CREATINE PHOSPHOKINASE [1]: 392.83 u/L
CREATININE [1]: 0.68 mg/dL
GLUCOSE [1]: 153.33 mg/dL
LACTATE DEHYDROGENASE [1]: 426.17 u/L
LIPASE [1]: 11.67 u/L
PHOSPHORUS [1]: 11 mg/dL
POTASSIUM [1]: 6.72 MEQ/L
SODIUM [1]: 146.67 MEQ/L
TOTAL BILIRUBIN [1]: 0.55 mg/dL
TOTAL PROTEIN [1]: 6.32 G/DL
URIC ACID [1]: 0.0167 mg/dL
ERYTHROCYTE COUNT [2]: 6.93 x10E6/uL
HEMATOCRIT [2]: 46.82%
HEMOGLOBIN [2]: 14.23 G/DL
LEUKOCYTE COUNT [2]: 13.43 x10E3/uL
MEAN CORPUSCULAR HEMOGLOBIN [2]: 20.55 pg
MEAN CORPUSCULAR HEMOGLOBIN CONCENTRATION [2]: 30.38 G/DL
MEAN CORPUSCULAR VOLUME [2]: 67.62 fL
ALANINE AMINOTRANSFERASE [2]: 44.67 u/L
ALBUMIN [2]: 3.8 G/DL
ALKALINE PHOSPHATASE [2]: 417.83 u/L
ASPARTATE AMINOTRANSFERASE [2]: 83 u/L
BLOOD UREA NITROGEN [2]: 15.33 mg/dL
CARBON DIOXIDE [2]: 38.83 mmol/L
CHLORIDE [2]: 98.17 MEQ/L
CHOLESTEROL [2]: 66.83 mg/dL
CREATINE PHOSPHOKINASE [2]: 383.17 u/L
CREATININE [2]: 0.72 mg/dL
GLUCOSE [2]: 156.5 mg/dL
LACTATE DEHYDROGENASE [2]: 519.67 u/L
LIPASE [2]: 4.83 u/L
PHOSPHORUS [2]: 11.07 mg/dL
POTASSIUM [2]: 6.03 MEQ/L
SODIUM [2]: 138 MEQ/L
TOTAL BILIRUBIN [2]: 0.55 mg/dL
TOTAL PROTEIN [2]: 6.3 G/DL
URIC ACID [2]: 0.0833 mg/dL
ERYTHROCYTE COUNT [3]: 6.43 x10E6/uL
HEMATOCRIT [3]: 44.4%
HEMOGLOBIN [3]: 13.2 G/DL
LEUKOCYTE COUNT [3]: 8.32 x10E3/uL
MEAN CORPUSCULAR HEMOGLOBIN [3]: 20.5 pg
MEAN CORPUSCULAR HEMOGLOBIN CONCENTRATION [3]: 29.63 G/DL
MEAN CORPUSCULAR VOLUME [3]: 69.13 fL
ALANINE AMINOTRANSFERASE [3]: 47 u/L
ALBUMIN [3]: 3.87 G/DL
ALKALINE PHOSPHATASE [3]: 436.67 u/L
ASPARTATE AMINOTRANSFERASE [3]: 80.67 u/L
BLOOD UREA NITROGEN [3]: 15.33 mg/dL
CARBON DIOXIDE [3]: 37.33 mmol/L
CHLORIDE [3]: 107.67 MEQ/L
CHOLESTEROL [3]: 84.67 mg/dL
CREATINE PHOSPHOKINASE [3]: 198 u/L
CREATININE [3]: 0.67 mg/dL
GLUCOSE [3]: 163.33 mg/dL
LACTATE DEHYDROGENASE [3]: 277.33 u/L
LIPASE [3]: 14.33 u/L
PHOSPHORUS [3]: 9.63 mg/dL
POTASSIUM [3]: 6.33 MEQ/L
SODIUM [3]: 149.67 MEQ/L
TOTAL BILIRUBIN [3]: 0.47 mg/dL
TOTAL PROTEIN [3]: 6.2 G/DL
URIC ACID [3]: 0.0333 mg/dL
ERYTHROCYTE COUNT [4]: 6.62 x10E6/uL
HEMATOCRIT [4]: 44.77%
HEMOGLOBIN [4]: 13.67 G/DL
LEUKOCYTE COUNT [4]: 11.49 x10E3/uL
MEAN CORPUSCULAR HEMOGLOBIN [4]: 20.67 pg
MEAN CORPUSCULAR HEMOGLOBIN CONCENTRATION [4]: 30.6 G/DL
MEAN CORPUSCULAR VOLUME [4]: 67.7 fL
ALANINE AMINOTRANSFERASE [4]: 36.33 u/L
ALBUMIN [4]: 3.8 G/DL
ALKALINE PHOSPHATASE [4]: 323.33 u/L
ASPARTATE AMINOTRANSFERASE [4]: 69 u/L
BLOOD UREA NITROGEN [4]: 14.67 mg/dL
CARBON DIOXIDE [4]: 34.67 mmol/L
CHLORIDE [4]: 100.67 MEQ/L
CHOLESTEROL [4]: 73 mg/dL
CREATINE PHOSPHOKINASE [4]: 199 u/L
CREATININE [4]: 0.67 mg/dL
GLUCOSE [4]: 164.33 mg/dL
LACTATE DEHYDROGENASE [4]: 327 u/L
LIPASE [4]: 5.67 u/L
PHOSPHORUS [4]: 11.33 mg/dL
POTASSIUM [4]: 5.83 MEQ/L
SODIUM [4]: 139.67 MEQ/L
TOTAL BILIRUBIN [4]: 0.43 mg/dL
TOTAL PROTEIN [4]: 6.17 G/DL
URIC ACID [4]: 0.27 mg/dL
